US10131644B2, “Aryl sultam derivatives as RORc modulators” (Genentech, Inc., priority 2014, dated 2018)

These compounds were tested against T1, RORc (Homo sapiens, UniProt P51449) (assay: In vitro RORc ligand binding assay (25-[3H]hydroxycholesterol displacement)). Conditions: IC50, IC50 values for RORc; unit inferred.
T1 sequence (P51449 269-508 limits assumed): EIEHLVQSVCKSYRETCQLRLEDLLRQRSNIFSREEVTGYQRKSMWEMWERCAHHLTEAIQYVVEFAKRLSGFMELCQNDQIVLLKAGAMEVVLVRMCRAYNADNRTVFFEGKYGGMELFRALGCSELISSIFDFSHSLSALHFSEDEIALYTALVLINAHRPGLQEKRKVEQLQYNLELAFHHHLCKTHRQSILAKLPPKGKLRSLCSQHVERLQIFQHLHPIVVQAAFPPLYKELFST
Protocol: This assay was used to determine a compound's potency in inhibiting activity of RORc by determining, Kiapp, IC50, or percent inhibition values.
On day of the assay, 100 uL of 0.05% CHAPS (in deionized H2O) was added to all wells of the GFB Unifilter plate and allowed soak for 1 h. A wash buffer of 50 mM HEPES (pH 7.4), 150 mM NaCl, and 5 mM MgCl2 was prepared to wash the filter plate. To prepare an assay buffer, BSA was added to the wash buffer to reach 0.01% and DTT was added to reach 1 mM.
The 20× compound stocks were diluted in DMSO with Assay Buffer 4-fold to reach 5× the final test concentration in 25% DMSO (10 uL compound+30 uL Assay Buffer). Solutions were mixed by aspiration several times with a pipette set on 50 uL volume. For the assay, 10 uL of 5× compound stock solutions in 25% DMSO were added to the assay plate in duplicate.
For two point screening, 10 mM stock compound solutions were diluted in DMSO to obtain 200 uM (20× the high test concentration) and then diluted 10-fold further to reach 20 uM (20× the low test concentration). The 20× stocks were diluted 4-fold with Assay Buffer (10 uL compound+30 uL Assay Buffer) to reach 5× the test concentrations (50 uM and 5 uM) and 10 uL were added to two assay plates for the duplicate wells. With each concentration tested on 2 plates, each set of 80 compounds used 4 assay plates (1 uM and 10 uM, with n=2).
For 25-hydroxycholesterol in 25% DMSO/75% Assay Buffer; 10 uL per well was used for NSB samples. Wells for Total Binding and No Receptor sample determination contained 10 uL of 25% DMSO/75% Assay Buffer per well.
Add 20 uL to all wells to reach 6 nM final in the assay.
Stock receptor solution was diluted in assay buffer to obtain 1.5 ug/mL in Assay Buffer. 20 uL was added to all wells. For No R samples, 20 uL Assay Buffer was substituted for receptor solution.
Assay plates were 96-well polypropylene V-bottom plates. 10 uL of 5× compound in 25% DMSO/75% Assay Buffer was added to Test wells. 10 uL of 25% DMSO/75% Assay Buffer was added to Total Binding or No Receptor wells. 10 uL of 5 uM 25-hydroxycholesterol in 25% DMSO/75% Assay Buffer was added to NSB wells. […] 20 uL of 1.5 ug/mL RORc receptor was added to wells (or 40 uL Assay Buffer to No R wells). Following addition to the wells, the plates were incubated 3 h at 25° C.
Using a Packard Filtermate Harvester, the filter plate were washed 4 times following transfer of the incubated samples. Plates were dry-filtered completely (2 h at 50° C. or overnight at room temperature). 50 uL Microscint 0 was added to all wells and read on Topcount protocol Inverted.
For NSB wells, 1 uM 25-hydroxycholesterol was also present.

Q: How did the IC50 turn out when `CC(=O)NCC1(c2ccc(CN3[C@@H](C)CC[C@H](c4ccccc4)S3(=O)=O)c(F)c2)CCOCC1` [Compound 70, N-[[4-[3-fluoro-4-[[(3S,6R)-3-methyl-1,1-dioxo-6-phenyl-thiazinan-2-yl]methyl]phenyl]tetrahydropyran-4-yl]methyl]acetamide] was run?
A: 148 nM

Q: With `C[C@H]1CC[C@H](c2ccccc2)S(=O)(=O)N1Cc1cc(F)c([C@]2(O)CC[C@@H](n3cnnc3)CC2)cc1F` [Compound 37, 1-[2,5-Difluoro-4-((3S,6R)-3-methyl-1,1-dioxo-6-phenyl-[1,2]thiazinan-2-ylmethyl)-phenyl]-4-[1,2,4]triazol-4-yl-cyclohexanol] as the compound, how does the IC50 read?
A: 20 nM

Q: `C[C@H]1CC[C@H](c2ccccc2)S(=O)(=O)N1Cc1ccc(C2(CO)CCOCC2)cc1` [Compound 32, {4-[4-((3S,6R)-3-Methyl-1,1-dioxo-6-phenyl-[1,2]thiazinan-2-ylmethyl)-phenyl]-tetrahydro-pyran-4-yl}-methanol] was tested. Which IC50 did it give?
A: 310 nM

Q: How did the IC50 turn out when `C[C@H]1CC[C@H](c2ccccc2)S(=O)(=O)N1Cc1ccc(C2(NCC(=O)N(C)C)CCOCC2)cc1F` [Compound 166, 2-[[4-[3-fluoro-4-[[(3S,6R)-3-methyl-1,1-dioxo-6-phenyl-thiazinan-2-yl]methyl]phenyl]tetrahydropyran-4-yl]amino]-N,N-dimethyl-acetamide] was run?
A: 27.6 nM

Q: Which IC50 does the source give for `C[C@H]1CC[C@H](c2ccccc2)S(=O)(=O)N1Cc1cc(F)c(C2(OCC(=O)NCCO)COC2)cc1F` [Compound 176, 2-[3-[2,5-difluoro-4-[[(3S,6R)-3-methyl-1,1-dioxo-6-phenyl-thiazinan-2-yl]methyl]phenyl]oxetan-3-yl]oxy-N-(2-hydroxyethyl)acetamide] here?
A: 2.5 nM

Q: `C[C@H]1CC[C@H](c2ccccc2)S(=O)(=O)N1Cc1ccc(C2(C(=O)NCCCN)CCOCC2)cc1F` [Compound 55, N-(3-aminopropyl)-4-[3-fluoro-4-[[(3S,6R)-3-methyl-1,1-dioxo-6-phenyl-thiazinan-2-yl]methyl]phenyl]tetrahydropyran-4-carboxamide] was tested. Which IC50 did it give?
A: 913 nM

Q: `CCOC(=O)[C@H](C)NC1(c2ccc(CN3[C@@H](C)CC[C@H](c4ccccc4)S3(=O)=O)c(F)c2)CCOCC1` [Compound 184, ethyl (2S)-2-[[4-[3-fluoro-4-[[(3S,6R)-3-methyl-1,1-dioxo-6-phenyl-thiazinan-2-yl]methyl]phenyl]tetrahydropyran-4-yl]amino]propanoate] was tested. Which IC50 did it give?
A: 40.9 nM

Q: Which IC50 does the source give for `COC(=O)C1(c2ccc(CN3[C@@H](C)CC[C@@H](c4ccccc4)S3(=O)=O)c(F)c2)CCOCC1` [Compound 38, 4-[3-Fluoro-4-((3S,6S)-3-methyl-1,1-dioxo-6-phenyl-[1,2]thiazinan-2-ylmethyl)-phenyl]-tetrahydro-pyran-4-carboxylic acid methyl ester] here?
A: 480 nM

Q: Which IC50 does the source give for `C[C@H]1CC[C@H](c2ccccc2)S(=O)(=O)N1Cc1ccc([C@]2(C(N)=O)C[C@H](O)C2)cc1F` [Compound 182, 1-[3-fluoro-4-[[(3S,6R)-3-methyl-1,1-dioxo-6-phenyl-thiazinan-2-yl]methyl]phenyl]-3-hydroxy-cyclobutanecarboxamide] here?
A: 37.3 nM

Q: `C[C@H]1CC[C@H](c2ccccc2)S(=O)(=O)N1Cc1ccc([C@]2(C#N)CC[C@@H](n3cnnc3)CC2)cc1F` [Example 20, 1-[3-Fluoro-4-((3S,6R)-3-methyl-1,1-dioxo-6-phenyl-[1,2]thiazinan-2-ylmethyl)-phenyl]-4-[1,2,4]triazol-4-yl-cyclohexanecarbonitrile] was tested. Which IC50 did it give?
A: 110 nM

Q: `C[C@H]1CC[C@H](c2ccccc2)S(=O)(=O)N1Cc1cc(F)c(C2(OCC(O)CO)CCOCC2)cc1F` (stereo in doubt) [Compound 170, (2S)-3-[4-[2,5-difluoro-4-[[(3S,6R)-3-methyl-1,1-dioxo-6-phenyl-thiazinan-2-yl]methyl]phenyl]tetrahydropyran-4-yl]oxypropane-1,2-diol] was tested. Which IC50 did it give?
A: 11.7 nM

Q: How did the IC50 turn out when `CNC(=O)CNC1(c2ccc(CN3[C@@H](C)CC[C@H](c4ccccc4)S3(=O)=O)c(F)c2)CCOCC1` [Compound 173, 2-[[4-[3-fluoro-4-[[(3S,6R)-3-methyl-1,1-dioxo-6-phenyl-thiazinan-2-yl]methyl]phenyl]tetrahydropyran-4-yl]amino]-N-methyl-acetamide] was run?
A: 33.1 nM

Q: Which IC50 does the source give for `C[C@H]1CC[C@H](c2ccccc2)S(=O)(=O)N1Cc1cc(F)c(C2(NCC(N)=O)COC2)cc1F` [Compound 195, 2-[[3-[2,5-difluoro-4-[[(3S,6R)-3-methyl-1,1-dioxo-6-phenyl-thiazinan-yl]methyl]phenyl]oxetan-3-yl]amino]acetamide] here?
A: 35 nM

Q: How did the IC50 turn out when `C[C@H]1CC[C@H](c2ccccc2)S(=O)(=O)N1Cc1ccc(C2([C@H](O)CCO)CCOCC2)cc1F` [Compound 118, (1R)-1-[4-[3-fluoro-4-[[(3S,6R)-3-methyl-1,1-dioxo-6-phenyl-thiazinan-2-yl]methyl]phenyl]tetrahydropyran-4-yl]propane-1,3-diol] was run?
A: 16.6 nM

Q: With `COC1(OC)CC(C#N)(c2ccc(CN3[C@@H](C)CC[C@H](c4ccccc4)S3(=O)=O)c(F)c2)C1` [Compound 160, 1-[3-fluoro-4-[[(3S,6R)-3-methyl-1,1-dioxo-6-phenyl-thiazinan-2-yl]methyl]phenyl]-3,3-dimethoxy-cyclobutanecarbonitrile] as the compound, how does the IC50 read?
A: 14.5 nM

Q: For `C[C@H](NC1(c2ccc(CN3[C@@H](C)CC[C@H](c4ccccc4)S3(=O)=O)c(F)c2)CCOCC1)C(N)=O` [Compound 185, (2S)-2-[[4-[3-fluoro-4-[[(3S,6R)-3-methyl-1,1-dioxo-6-phenyl-thiazinan-2-yl]methyl]phenyl]tetrahydropyran-4-yl]amino]propanamide], which IC50 is on record?
A: 102 nM

Q: With `C[C@H]1CC[C@H](c2ccccc2)S(=O)(=O)N1Cc1cc(F)c(C2(COCC(N)=O)CC2)cc1F` [Compound 127, 2-[[1-[2,5-difluoro-4-[[(3S,6R)-3-methyl-1,1-dioxo-6-phenyl-thiazinan-2-yl]methyl]phenyl]cyclopropyl]methoxy]acetamide] as the compound, how does the IC50 read?
A: 20 nM

Q: How did the IC50 turn out when `C[C@H]1CC[C@H](c2ccccc2)S(=O)(=O)N1Cc1ccc(C2([C@@H](O)CO)CCOCC2)cc1F` [Compound 98, (1R)-1-[4-[3-fluoro-4-[[(3S,6R)-3-methyl-1,1-dioxo-6-phenyl-thiazinan-2-yl]methyl]phenyl]tetrahydropyran-4-yl]ethane-1,2-diol] was run?
A: 63 nM

Q: `C[C@H]1CC[C@@H](c2ccccc2)S(=O)(=O)N1Cc1ccc(C2(O)CCS(=O)(=O)CC2)cc1F` [Compound 41, (3S,6S)-2-(2-fluoro-4-(4-hydroxy-1,1-dioxidotetrahydro-2H-thiopyran-4-yl)benzyl)-3-methyl-6-phenyl-1,2-thiazinane 1,1-dioxide] was tested. Which IC50 did it give?
A: 1200 nM

Q: With `C[C@H]1CC[C@H](c2ccccc2)S(=O)(=O)N1Cc1cc(F)c(C2(CO)CCC(n3cnnc3)CC2)cc1F` (stereo partly drawn) [Compound 134, [1-[2,5-difluoro-4-[[(3S,6R)-3-methyl-1,1-dioxo-6-phenyl-thiazinan-2-yl]methyl]phenyl]-4-(1,2,4-triazol-4-yl)cyclohexyl]methanol] as the compound, how does the IC50 read?
A: 87.9 nM

Q: Which IC50 does the source give for `CC(=O)N1CCC(C#N)(c2cc(F)c(CN3[C@@H](C)CC[C@H](c4ccccc4)S3(=O)=O)cc2F)CC1` [Compound 148, 1-acetyl-4-[2,5-difluoro-4-[[(3S,6R)-3-methyl-1,1-dioxo-6-phenyl-thiazinan-2-yl]methyl]phenyl]piperidine-4-carbonitrile] here?
A: 14.5 nM
